Experimental findings from patent publication US20040253243A1, “Aptamer therapeutics useful in ocular pharmacotherapy” (priority 2003, published 2004) are described below.

{PEG30K} = 30 kDa polyethylene glycol, attached through the amine; {PEG20K} = 20 kDa polyethylene glycol; [invdT] = inverted (3'-3') thymidine; {3T} = T cap; {NH2} = amine group; m = 2'-O-methyl; r = 2'-OH (RNA); f = 2'-fluoro

In data set [1] the target is T1, TGFβ2 (Homo sapiens, UniProt P61812).
T1 sequence (P61812 303-414 limits assumed): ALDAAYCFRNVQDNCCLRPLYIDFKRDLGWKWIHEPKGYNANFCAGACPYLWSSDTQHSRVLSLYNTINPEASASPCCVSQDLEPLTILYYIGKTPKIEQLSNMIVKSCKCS
Kind of data set: Dot blot binding of doped reselection aptamers to TGFβ2. Also on record: For bio-chemical characterization of these aptamers, two forms of mature TGFβ2 were generated, native and N-terminal his-tagged versions, in E. coli. Particulars: CW128_103. The protocol:
TGFβ2 was serially diluted in DPBS containing 0.2 mg/ml BSA and 0.2 mg/ml tRNA. ^32P-labeled RNA (<20 pM) were incubated with TGFβ2 at room temperature for 30 min. Samples were pipetted with a multichannel pippetor onto a multiwell manifold holding layers of pre-wetted 0.45 micron nitrocellulose, hybond membrane, 3MM filter paper (the order is from top to bottom), aspirated, and washed 3× with DPBS (containing tRNA). All three filters were air dried, exposed to phosphorimager plate, analyzed by ImageQuant.

The subject of the next data set is PDGF AB and BB. Kind of data set: PDGF binding (Kd). Also on record: species or system human. Particulars: read-out: Kd, PDGF AB and BB.
Data set [2] in a line: Pharmacokinetics via subconjunctival administration. Particulars: for AUC (0-t) / Cmax / MRT / TLAST / t1/2 / tmax / Vd: subconjunctival, 1 mg/eye bilaterally; for detection in the aqueous humor: after subconjunctival administration. In kind it is in vivo, mice. The protocol: A pharmacokinetic study was performed to determine the pharmacokinetics of ARC81, ARC117 and ARC119, TGFβ2 aptamers having the sequences of SEQ ID NOs:4, 9 and 11, respectively), via subconjunctival administration in mice. These aptamers were formulated at a concentration of 10 mg/ml. Samples were collected at 0, 0.5, 1, 2, 6, 12, 24, 48 and 96 hours post-administration. FIGS. 21A, 21B and 21C show the aqueous humor and/or plasma concentration of each aptamer (in nM) through 50 hours post dose via subconjunctival administration.

Another data set deals with T2, human TGFβ2 (Homo sapiens, UniProt P61812).
T2 construct: two forms of mature TGFβ2 were generated, native and N-terminal his-tagged versions, in E. coli; made in house; host or cells: E. coli; added as soluble protein to MLEC
T2 sequence (P61812 303-414): T1 sequence (P61812 303-414 limits assumed)
Kind of data set: MLEC proliferation assay (reversal of TGFβ2-mediated inhibition, BrdU). The class given is cell-based. The protocol:
MLECs were plated at 2,000 cells per well and incubated at 37° C. for 4 hours. Aptamer and TGFβ2 were added at the indicated concentrations for 16 hours at 37° C. Cell proliferation was measured using BrdU incorporation. BrdU assay was performed as recommended by the manufacturer (Roche Diagnostics).
MLEC Assay. The mink lung epithelial cell proliferation assay is performed over two days. On day 1:1) media is aspirated off from Mink Lung Epithelial Cells (MLEC); 2) the MLEC are washed with 10 ml 1×PBS; 3) 3 ml Trypsin is added and Trypsinize for 3 min at 37° C.; 4) quench with 10 ml 0.5% FBS media; 5) spin at 1000 rpm for 3.30 min; 6) aspirate off supernatant; 7) resuspend pellet in 10 ml 0.5% FBS media; 8) Count 10 μl cell suspension; 9) adjust cell density to 80,000 cells/ml; 10) add 50 μl of cells/well to black bottomed 96-well plates (4000 cells/well); pipet up and down during plating process to avoid settling of cells and uneven plating; 11) incubate cells at 37° C. in 5% CO2 for 4 hrs to allow adherence of cells; 12) add 25 μl of aptamer (or media, or other test reagent, such as for example, an antibody), preferably the outer wells are not used for treated cells; 13) add 25 μl of TGFβ2 (typically 25 pg/ml); and 14) incubate cells at 37° C. in 5% CO2 overnight.
On day 2:1) mix 20 μl BrdU with 2 ml 0.5% FBS media; 2) add 10 μl of BrdU mixture/well; 3) incubate cells at 37° C. in 5% CO2 for 3 hrs; 4) remove media and blot plates dry on paper towels; 5) add 200 μl/well FixDenat solution and incubate for 30 min at room temperature (RT); 6) remove FixDenat solution and blot plates dry on paper towels; 7) add 100 μl /well anti-BrdU POD solution and incubate for 90 min at RT; 8) remove anti-BrdU POD solution and blot plates dry on paper towels; 9) wash plates 3× with […] washing solution with 5 min RT incubations and blot plates dry on paper towels; 10) add 100 μl /well substrate solution and incubate for 3 min at RT in dark; and 11) read plates using PSP Luciferace 1 program on TopCount (Packard Bioscience Co., Downers Grove, Ill.).

The target in data set [3] is T1, TGFβ2. Kind of data set: Nitrocellulose-filter partitioning binding of 32P-labeled aptamer to TGFβ-2 protein. Also noted: A synthetic polynucleotide encoding full length human TGFβ2 mature protein was cloned into pRSET E. coli expression vector; made in house. The protocol: Dissociation constants for the binding of aptamers to purified human or rodent TGFβ-2 protein were determined by nitrocellulose-filter partitioning using ^32P-labeled RNA. In vitro transcribed RNA was treated with calf-intestinal alkaline phophatase (New England Biolabs) to remove 5′-triphosphates, then radio-labeled by incubation with γ-^32P-ATP and T4 polynucleotide kinase (New England Biolabs). Unincorporated label was removed by gel-filtration, and the RNAs were further purified by polyacrylamide gel electrophoresis (PAGE). Purified ^32P-labeled aptamer in water was refolded just prior to use by heating for 3 min at 95° C., followed by a 10 minute room-temperature incubation in binding buffer (50 mM Hepes, pH 7.4, 1 mM MgCl2, 1 mM CaCl2, 3 mM KCl, 140 mM NaCl, 0.1 mg/ml BSA, 0.01 mg/ml tRNA). The binding reactions (100 μL) were initiated by the addition of aptamer (≦0.1 nM) to excess TGFβ-2 protein (0.2-100 nM), followed by 10-30 minute equilibration at room temperature.
Nitrocellulose-filter partitioning was performed on Minifold® I, 96-well Dot-Blot manifolds (Schleicher & Schuell). Protein-bound aptamer and residual free aptamer were captured, respectively, on pre-wetted Protran nitrocellulose (Schleicher & Schuell) and Hybond-P polyvinylidene difluoride (Amersham Biosciences) filters by vacuum aspiration, and quantified by PhosphorImager (Amersham Biosciences). The proportion of protein-bound aptamer at each TGFβ-2 concentration was plotted as the ratio of counts-per-minute on the Protran nitrocellulose filter (CPMNC) to the sum of CPM on the Protran and Hybond-P filters (CPMtotal). Estimates of dissociation constants (KD) were obtained from a fit of the concentration of TGFβ-2 (i.e., [TGFβ-2])-dependent data to a standard binding isotherm: CPMNC/CPMtotal=Cmax/(1+KD/[TGFβ2]total), where Cmax equals the maximum observed value of CPMNC/CPMtotal at saturating [TGFβ-2], likely reflecting the proportion of properly-folded aptamer that is competent to recognize TGFβ-2.

Sequence of PDGF AB and BB (P01127 82-190 limits assumed): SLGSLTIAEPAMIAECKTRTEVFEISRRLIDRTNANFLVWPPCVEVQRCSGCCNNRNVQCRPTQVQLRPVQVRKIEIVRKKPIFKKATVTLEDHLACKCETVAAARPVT

“AfCAGAGfUAfUfUAfUAGAGfUAfUGfUAfUAGfCfUAfUAfCfUGfUfC[3T] (ACAGAGUAUUAUAGAGUAUGUAUAGCUAUACUGUC; 2'-fluoro at CU, RNA at AG, 3' {3T}, backbone not given here) [ARC283, minimized S5CR8-45]”: binding with TGFβ2 [1] was put at a Kd of 1270 pM.

For “5′-dCdAdCdAdGdGdCTdAdCdGdGdCdAdCdGTdAdGdAdGdCdATdCdAdCdCdATdGdATdCdCTdGTdG-3T-3′ (CACAGGCTACGGCACGTAGAGCATCACCATGATCCTGTG; 3' [invdT], sugars by position and backbone not given here; further chemistry not fully specified) [ARC124]”, the Kd (as a rule, the constant that tells how readily two partners part at equilibrium) in the data set on PDGF AB and BB amounted to 100 pM.

“AAGGAGfUAfUfUAfUAGAGfUAfUGfUAfUAGfCfUAfUAfCfCAfU[3T] (AAGGAGUAUUAUAGAGUAUGUAUAGCUAUACCAU; 2'-fluoro at CU, RNA at AG, 3' {3T}, backbone not given here) [ARC281, minimized S5CR12-15]” registered a Kd in the data set with TGFβ2 [1] of 1420 pM.

On to “AGGGAAfUAfUfUAfUAGAGfUAfUGfUAfUAGfCfUAfUAfCfCAfU[3T] (AGGGAAUAUUAUAGAGUAUGUAUAGCUAUACCAU; 2'-fluoro at CU, RNA at AG, 3' {3T}, backbone not given here) [ARC282, minimized AMX(71)_A8]”, for which, in the data set with TGFβ2 [1], the Kd came to 620 pM.

As for “5′-[PEG30K]-NH2-mGmGmGmGfUfUAfUfUmAfCmAmGmAmGfUfCfUGfUAfUAmGfCfUmGfUmAfCfCfC-3T-3′ (GGGGUUAUUACAGAGUCUGUAUAGCUGUACCC; sugars from the 5' end mmmmffrffmfmmmmfffrfrfrmffmfmfff, 5' {PEG30K}-{NH2}, 3' {3T}, backbone not given here) [ARC119]”, in data set [2] (Aq Humour), the “AUC (0-t)” value stood at 133.2 nM·h, the Cmax was determined as 28.4 nM, the MRT is given as 12.80 h and the TLAST is on record as 48 h. In data set [2] (Aq Humour), this substance showed a t1/2 of 17.52 h and a tmax of 0.5 h. Moreover, in data set [2] (PLASMA), the “AUC (0-t)” value is on record as 13,380.5 nM · h, the Cmax stood at 721 nM, the MRT is listed as 17.28 h and the TLAST is given as 48 h. In data set [2] (PLASMA), the Vd is reported as 137 mL, the t1/2 is listed as 6.94 h and the tmax is reported as 12 h. In data set [2], the “detection in the aqueous humor” value is “detected in the aqueous humor”.

As for “5′-[PEG20K]-NH2-mGmGmGmGfUfUAfUfUmAfCmAmGmAmGfUfCfUGfUAfUAmGfCfUmGfUmAfCfCfC-3T-3′ (GGGGUUAUUACAGAGUCUGUAUAGCUGUACCC; sugars from the 5' end mmmmffrffmfmmmmfffrfrfrmffmfmfff, 5' {PEG20K}-{NH2}, 3' {3T}, backbone not given here; PEG attached through 5' amine linker) [ARC117]”, in data set [2] (Aq Humour), the “AUC (0-t)” value was determined as 87.6 nM·h, the Cmax stood at 22.9 nM, the MRT is 3.62 h and the TLAST is reported as 24 h. In data set [2] (Aq Humour), this substance came in with a t1/2 of 4.33 h and a tmax of 1 h. Moreover, in data set [2] (PLASMA), the “AUC (0-t)” value is 1,122.1 nM · h, the Cmax stood at 145 nM, the MRT worked out at 9.22 h and the TLAST is listed as 48 h. In data set [2] (PLASMA), the Vd is on record as 1760 mL, the t1/2 is 7.40 h and the tmax turned out to be 6 h. Moreover, the “detection in the aqueous humor” value in data set [2] was “detected in the aqueous humor”.

Consider “5′-TdAdCTdCdAdGdGdGdCdAdCTdGdCdAdAdGdCdAdATTdGTdGdGTdCdCdCdAdATdGdGdGdCTdGdAdGTdA-3T-3′ (TACTCAGGGCACTGCAAGCAATTGTGGTCCCAATGGGCTGAGTA; 3' [invdT], sugars by position and backbone not given here; further chemistry not fully specified) [ARC125]”, for which the Kd in the data set on PDGF AB and BB was determined as 100 pM.

With “GAfCAGAGfUAfUfUAfUAGAGfUAfUGfUAfUAGfCfUAfUAfCfUGfU[3T] (GACAGAGUAUUAUAGAGUAUGUAUAGCUAUACUGU; 2'-fluoro at CU, RNA at AG, 3' {3T}, backbone not given here) [ARC284, minimized S5R8-45]”, the affinity with TGFβ2 [1], expressed as Kd, was 110 pM.

Turning to “5′-mGmGmAmGmGfUfUAfUfUmAfCmAmGmAmGfUfCfUGfUAfUAmGfCfUmGfUmAfCfUfCfc-3T-3′ (GGAGGUUAUUACAGAGUCUGUAUAGCUGUACUCC; sugars from the 5' end mmmmmffrffmfmmmmfffrfrfrmffmfmffff, 3' {3T}, backbone not given here) [ARC79]”, the IC50 (in general, the concentration that inhibits the measured activity by half) with human TGFβ2 (read-out: cell IC50) came to 10000 pM. In addition, in the data set with TGFβ2 [3] (read-out: KD), the Kd was determined as 1000 pM.

For the substance “5′-TdGdGdGdAdGdGdGdCdGdCdGTTdCTTdCdGTdGdGTTdAdCTTTTdAdGTdCdCdCdG-3T-3′ (TGGGAGGGCGCGTTCTTCGTGGTTACTTTTAGTCCCG; 3' [invdT], sugars by position and backbone not given here; further chemistry not fully specified) [ARC123]”, the Kd in the data set on PDGF AB and BB was 100 pM.

Take “5′-NH2-GGAGGfUfUAfUfUAfCAGAGfUfCfUGfUAfUAGfCfUGfUAfCfUfCfC-3T-3′ (GGAGGUUAUUACAGAGUCUGUAUAGCUGUACUCC; 2'-fluoro at CU, RNA at AG, 5' {NH2}, 3' {3T}, backbone not given here) [ARC78]”: the “inhibition of the antiproliferative effects of TGFβ2” value in the data set with human TGFβ2 (50 pg/ml of TGFβ2, BrdU incorporation) is reported as “inhibit the antiproliferative effects of 50 pg/ml of TGFβ2”. Besides, in the data set with TGFβ2 [3] (32P-labeled aptamer, nitrocellulose-filter partitioning, fit to Equation 1, read-out: Kd), the Kd turned out to be 4000 pM.
